According to US10952433B2, “Solutions for enhancing the effectiveness of insecticides and fungicides on living plants and related methods” (priority 2015, dated 2021):
Like-named read-outs stand apart in the source and are kept apart here.

Experiments:
[1] = system: lepidopteran larvae: cabbage loopers (Trichoplusia ni) and beet armyworms (Spodoptera exigua); assay type: in vivo; details: leaf discs
Excerpt: A second series of tests involved romaine lettuce discs approximately ⅝ inch in diameter. (L. sativa). They were dipped in the treatment solution one second per disc. This test involved the 5/5 configuration, i.e., 5 treated and 5 untreated. The infestation involved […] lepidopteran larvae at the 3rd to 4th instar development per container: four cabbage loopers (Trichoplusia ni), and four beet armyworms (Spodoptera exigua) were employed. The test containers were placed in a dark humidity cabinet at 15° C. and 80% relative humidity. Visual evaluations of the average percent damage were taken at 24, 48 and 72 hours after the initiation of infestation. Damage was evaluated in 5% increments based on total disc area.
In the tests reported in Table 8 pages 29-32), romaine lettuce leaf discs ⅝″ in diameter (L. sativa) were dipped in the treatment solution for about one second per disc. Infestation was provided by eight lepidopteran larvae at the 3rd to 4th instar development per container. Four cabbage loopers (Trichoplusia ni) and four beet armyworms (Spodoptera exigua) were employed in infestation. The containers were placed in a dark humidity cabinet at 15° C. and 80% relative humidity. Visual observations of the average percent damage was taken at 24, 48 and 72 hours after infestation. Damage evaluation was by 5% increments over the total disc area.
In the tests results provided in Table 8, the identity and concentrations of the insecticide was identical to the tests results reported in Table 7. The concentration of 200:1 was employed for the no amino oxide, no buffer and buffered amine oxide system. This series of tests, however, reported how the percent damage changed with time at the respective 24, 48 and 72 hour intervals.

[2] = system: lepidopteran larvae: cabbage loopers (Trichoplusia ni) and beet armyworms (Spodoptera exigua); assay type: in vivo; details: plants
Method: In a first group of tests, the results of which are shown in Table 7 (pages 22-24), romaine lettuce plants two to three inches in height were exposed to 10 milliliters of solution applied to each plant using a low volume trigger spray. With respect to containers 0-7, ten plants were employed per container, nine were treated and one was an internal control. In containers M-H, ten plants per container were used, five were treated and 5 were internal controls. Each container was infested with 30 lepidopteran larvae between the 5th and 6th instar development. Fifteen cabbage loopers (Trichoplusia ni) and 15 beet armyworms (Spodoptera exigua) were used to infest the romaine lettuce plants. Visual evaluations for the average percentage total surface area damage were taken 24 hours after infestation. Percentage damage was evaluated by 5% increments for total damage across all plant leaves.
As indicated in the first column of Table 7, in some tests, no insecticide was employed and there were two controls; a no water control and a no dye control. A wide variety of insecticides selected from the following group were tested: Chlorantranilopril, Acephate, Methoxyfenozide, Spinosad, Permethrin, and Indoxacarb. The product concentration is shown in PPM in column 2. Column 3 is divided into two subunits, the first being CO3 and the second, PO4. In all instances in columns 3, 4 and 5 and their sub-columns, the concentrations used were 200:1. The fourth column employed amine oxide, but no buffer. […] Two sub-columns each are represented for CO3 and PO4. The final column is a reading of the Percent Lepidopteran Damage to the romaine lettuce plants after 24 hours.
In addition to testing the buffered amine system of the present invention with the two amine oxides identified as CO3 and PO4 and their use with 12 carbon length and a mixture of 12 and 18 designated 1218 for comparative data purposes various differences were created in the testing. Some of the tests were performed with (a) no insecticide along with (b) no amine oxide for CO3 and PO4 and (c) with no buffer, but with amine oxide. Also, tests were run using no insecticide and no water control with no foliar application being made. Tests with no insecticide and no dye control employed foliar application of water only. The tests were conducted with all of the testing on the buffer alone, the amine oxide alone and the buffered amine oxide system of the present invention in the concentration of 200:1.

[3] = insecticide + CO3 buffer 200:1, no amine oxide, PPM: Chlorantranilopril 60, Acephate 70, Methoxyfenozide 100, Spinosad 30, Permethrin 10, Indoxacarb 50
[4] = insecticide + PO4 buffer 200:1, no amine oxide, PPM: Chlorantranilopril 60, Acephate 70, Methoxyfenozide 100, Spinosad 30, Permethrin 10, Indoxacarb 50
[5] = insecticide + amine oxide 12, no buffer, 200:1, PPM: Chlorantranilopril 60, Acephate 70, Methoxyfenozide 100, Spinosad 30, Permethrin 10, Indoxacarb 50
[6] = insecticide + amine oxide 1218, no buffer, 200:1, PPM: Chlorantranilopril 60, Acephate 70, Methoxyfenozide 100, Spinosad 30, Permethrin 10, Indoxacarb 50
[7] = insecticide + buffered amine oxide system CO3, 12, 200:1, PPM: Chlorantranilopril 60, Acephate 70, Methoxyfenozide 100, Spinosad 30, Permethrin 10, Indoxacarb 50
[8] = insecticide + buffered amine oxide system CO3, 1218, 200:1, PPM: Chlorantranilopril 60, Acephate 70, Methoxyfenozide 100, Spinosad 30, Permethrin 10, Indoxacarb 50
[9] = insecticide + buffered amine oxide system PO4, 12, 200:1, PPM: Chlorantranilopril 60, Acephate 70, Methoxyfenozide 100, Spinosad 30, Permethrin 10, Indoxacarb 50
[10] = insecticide + buffered amine oxide system PO4, 1218, 200:1, PPM: Chlorantranilopril 60, Acephate 70, Methoxyfenozide 100, Spinosad 30, Permethrin 10, Indoxacarb 50
[11] = insecticide alone, highest, PPM: Chlorantranilopril 120, Acephate 140, Methoxyfenozide 200, Spinosad 60, Permethrin 20, Indoxacarb 100
[12] = insecticide alone, increased, PPM: Chlorantranilopril 90, Acephate 105, Methoxyfenozide 150, Spinosad 45, Permethrin 15, Indoxacarb 75
[13] = insecticide alone, PPM: Chlorantranilopril 60, Acephate 70, Methoxyfenozide 100, Spinosad 30, Permethrin 10, Indoxacarb 50

For COC(=O)N(C(=O)N1CO[C@@]2(C(=O)OC)Cc3cc(Cl)ccc3C2=N1)c1ccc(OC(F)(F)F)cc1 [Indoxacarb], the “Percent Lepidopteran Damage to Romaine Lettuce 24 hr” value [1, 3] was 21.5%, the “Percent Lepidopteran Damage to Romaine Lettuce 24 hr” value [1, 4] was 22.5% and the “Percent Lepidopteran Damage to Romaine Lettuce 24 hr” value [1, 5] was 45.5%. The “Percent Lepidopteran Damage to Romaine Lettuce 24 hr” value [1, 6] was 44.5%, the “Percent Lepidopteran Damage to Romaine Lettuce 24 hr” value [1, 7] was 33.5% and the “Percent Lepidopteran Damage to Romaine Lettuce 24 hr” value [1, 8] was 26.5%. For the same molecule, the “Percent Lepidopteran Damage to Romaine Lettuce 24 hr” value [1, 9] was 61.0%, the “Percent Lepidopteran Damage to Romaine Lettuce 24 hr” value [1, 10] was 19.0% and the “Percent Lepidopteran Damage to Romaine Lettuce 24 hr” value [1, 11] was 25.0%. For the same molecule, the “Percent Lepidopteran Damage to Romaine Lettuce 24 hr” value [1, 12] was 32.0%, the “Percent Lepidopteran Damage to Romaine Lettuce 24 hr” value [1, 13] was 19.5% and the “Percent Lepidopteran Damage to Romaine Lettuce 48 hr” value [1, 3] was 29.0%. The “Percent Lepidopteran Damage to Romaine Lettuce 48 hr” value [1, 4] was 25.0%, the “Percent Lepidopteran Damage to Romaine Lettuce 48 hr” value [1, 5] was 55.0% and the “Percent Lepidopteran Damage to Romaine Lettuce 48 hr” value [1, 6] was 68.0%. The “Percent Lepidopteran Damage to Romaine Lettuce 48 hr” value [1, 7] was 46.5%, the “Percent Lepidopteran Damage to Romaine Lettuce 48 hr” value [1, 8] was 50.5% and the “Percent Lepidopteran Damage to Romaine Lettuce 48 hr” value [1, 9] was 63.5%. The “Percent Lepidopteran Damage to Romaine Lettuce 48 hr” value [1, 10] was 34.5%, the “Percent Lepidopteran Damage to Romaine Lettuce 48 hr” value [1, 11] was 35.5% and the “Percent Lepidopteran Damage to Romaine Lettuce 48 hr” value [1, 12] was 38.0%. For the same molecule, the “Percent Lepidopteran Damage to Romaine Lettuce 48 hr” value [1, 13] was 68.5%, the “Percent Lepidopteran Damage to Romaine Lettuce 72 hr” value [1, 3] was 37.5% and the “Percent Lepidopteran Damage to Romaine Lettuce 72 hr” value [1, 4] was 32.5%. For the same molecule, the “Percent Lepidopteran Damage to Romaine Lettuce 72 hr” value [1, 5] was 61.5%, the “Percent Lepidopteran Damage to Romaine Lettuce 72 hr” value [1, 6] was 71.0% and the “Percent Lepidopteran Damage to Romaine Lettuce 72 hr” value [1, 7] was 57.5%. The “Percent Lepidopteran Damage to Romaine Lettuce 72 hr” value [1, 8] was 57.0%, the “Percent Lepidopteran Damage to Romaine Lettuce 72 hr” value [1, 9] was 71.0% and the “Percent Lepidopteran Damage to Romaine Lettuce 72 hr” value [1, 10] was 34.5%. The “Percent Lepidopteran Damage to Romaine Lettuce 72 hr” value [1, 11] was 39.5%, the “Percent Lepidopteran Damage to Romaine Lettuce 72 hr” value [1, 12] was 72.0% and the “Percent Lepidopteran Damage to Romaine Lettuce 72 hr” value [1, 13] was 88.0%. For the same molecule, the “Percent Lepidopteran Damage to Romaine Lettuce 24 hr” value [2, 3] was 50.5%, the “Percent Lepidopteran Damage to Romaine Lettuce 24 hr” value [2, 4] was 25.5% and the “Percent Lepidopteran Damage to Romaine Lettuce 24 hr” value [2, 5] was 26.5%. For the same molecule, the “Percent Lepidopteran Damage to Romaine Lettuce 24 hr” value [2, 6] was 25.5%, the “Percent Lepidopteran Damage to Romaine Lettuce 24 hr” value [2, 7] was 7.0% and the “Percent Lepidopteran Damage to Romaine Lettuce 24 hr” value [2, 8] was 7.0%. The “Percent Lepidopteran Damage to Romaine Lettuce 24 hr” value [2, 9] was 7.5%, the “Percent Lepidopteran Damage to Romaine Lettuce 24 hr” value [2, 10] was 8.0% and the “Percent Lepidopteran Damage to Romaine Lettuce 24 hr” value [2, 11] was 12.0%. For the same molecule, the “Percent Lepidopteran Damage to Romaine Lettuce 24 hr” value ([2]; insecticide alone, highest, PPM: Chlorantranilopril 120, Acephate 140, Methoxyfenozide 200, Spinosad 60, Permethrin 20, Indoxacarb 100, listed as lndoxacarb) was 12.5%, the “Percent Lepidopteran Damage to Romaine Lettuce 24 hr” value [2, 12] was 20.0% and the “Percent Lepidopteran Damage to Romaine Lettuce 24 hr” value [2, 13] was 47.0%.
